Test results: patent US20060069132A1, “Azolecarboxamide herbicides” (priority 2004, published 2006)

Experiments:
morningglory = experiment: Test B pre-/postemergence herbicide test; assay type: in vivo, Ipomoea coccinea; settings: for Morningglory plant response rating: postemergence
Outline: (§1)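 Pre: seeds sown, then sprayed. Post: 1–4-leaf plants (2–18 cm) sprayed at the same time. Paddy: flooded, treated at 2-leaf stage. Formulation: non-phytotoxic solvent with surfactant. Greenhouse 13–15 days; visual 0–100 score relative to controls.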

lambsquarters = experiment: Test B pre-/postemergence herbicide test; assay type: in vivo, Chenopodium album; settings: for Lambsquarters plant response rating: postemergence
Outline: (§2)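 Visual rating, 0 (no effect) to 100 (complete control), versus untreated controls after 13–15 d in greenhouse. Pre- and postemergence applications (postemergence plants 2–18 cm, 1–4 leaves); flooded paddy arm at 2-leaf stage. Compounds in non-phytotoxic solvent plus surfactant.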

giant foxtail = experiment: Test B pre-/postemergence herbicide test; assay type: in vivo, Setaria faberi
Outline: as §2

barnyardgrass [1] = experiment: Test B pre-/postemergence herbicide test; assay type: in vivo, Echinochloa crus-galli
Outline: as §1

blackgrass = experiment: Test B postemergence herbicide test; assay type: in vivo, Alopecurus myosuroides; settings: scale 0 (no effect) to 100 (complete control); for Blackgrass plant response rating: postemergence, visual rating
Outline: (§3)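 Read-out: visual comparison with controls, scored 0 to 100, where 100 means complete control and 0 no effect. Formulated chemicals were applied postemergence to plants 2–18 cm tall (1- to 4-leaf), or to flooded-paddy plants at the 2-leaf stage, then held 13 to 15 days under glass.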

cocklebur = experiment: Test B pre-/postemergence herbicide test; assay type: in vivo, Xanthium strumarium
Outline: as §1

Surinam grass = experiment: Test B pre-/postemergence herbicide test; assay type: in vivo, Urochloa decumbens; settings: for Surinam Grass plant response rating: postemergence
Outline: as §2

rice [2] = experiment: Test B pre-/postemergence herbicide test; assay type: in vivo, Oryza sativa; settings: preemergence
Text: Seeds selected from barnyardgrass (Echinochloa crus-galli (L.) Beauv.), Surinam grass (Urochloa decumbens (Staph) R. D. Webster, previously named Brachiaria decumbens Stapf), cocklebur (Xanthium strumarium L.), corn (Zea mays L.), large crabgrass (Digitaria sanguinalis (L.) Scop.), giant foxtail (Setaria faberi Herim.), lambsquarters (Chenopodium album L.), morningglory (Ipomoea coccinea L.), pigweed (Amaranthus retroflexus L.), rice (Oryza sativa L.) and velvetleaf (Abutilon theophrasti Medik.) were planted and treated preemergence with test chemicals formulated in a non-phytotoxic solvent mixture which included a surfactant.
At the same time, plants selected from these crop and weed species and also blackgrass (Alopecurus myosuroides Huds.), wheat (Triticum aestivum L.) and wild oat (Avena fatua L.) were treated with postemergence applications of test chemicals formulated in the same manner. Plants ranged in height from 2 to 18 cm (1- to 4-leaf stage) for postemergence treatments. Plant species in the flooded paddy test consisted of rice (Oryza sativa L.), small flower umbrella sedge (Cyperus difformis L.), ducksalad (Heteranthera limosa (Sw.) Willd.) and barnyardgrass (Echinochloa crus-galli (L.) Beauv.) grown to the 2-leaf stage for testing. Treated plants and controls were maintained in a greenhouse for 13 to 15 days, after which time all species were compared to controls and visually evaluated. Plant response ratings, summarized in Table B, are based on a scale of 0 to 100 where 0 is no effect and 100 is complete control. A dash (-) response means no test result.

ducksalad = experiment: Test B flooded paddy test; assay type: in vivo, Heteranthera limosa; settings: 1000 g ai/ha, visual rating, scale 0 to 100 (0 no effect, 100 complete control), 13 to 15 days
Outline: as §3

wild oat = experiment: Test B postemergence herbicide test; assay type: in vivo, Avena fatua; settings: scale 0 (no effect) to 100 (complete control); for Oat, Wild plant response rating: postemergence, visual rating
Outline: (§4)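 Scale 0–100: zero equals no visible effect, 100 complete control, judged by eye relative to controls. Timing: 13 to 15 days in greenhouse post-treatment. Growth stage at spraying: two leaves (paddy) or one to four leaves, 2–18 cm (postemergence).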

wheat = experiment: Test B postemergence herbicide test; assay type: in vivo, Triticum aestivum; design: key to Wheat plant response rating: 0 = no effect, 100 = complete control; settings: scale 0 (no effect) to 100 (complete control); for Wheat plant response rating: postemergence, visual rating
Outline: as §4

velvetleaf = experiment: Test B pre-/postemergence herbicide test; assay type: in vivo, Abutilon theophrasti; settings: for Velvetleaf plant response rating: postemergence
Outline: as §2

rice [3] = experiment: Test B flooded paddy test; assay type: in vivo, Oryza sativa; settings: 1000 g ai/ha, visual rating, scale 0 to 100 (0 no effect, 100 complete control), 13 to 15 days
Outline: as §3

barnyardgrass [4] = experiment: Test B flooded paddy test; assay type: in vivo, Echinochloa crus-galli; settings: 1000 g ai/ha, visual rating, scale 0 to 100 (0 no effect, 100 complete control), 13 to 15 days
Outline: as §3

pigweed = experiment: Test B pre-/postemergence herbicide test; assay type: in vivo, Amaranthus retroflexus; settings: for Pigweed plant response rating: postemergence
Outline: as §2

corn = experiment: Test B pre-/postemergence herbicide test; assay type: in vivo, Zea mays
Outline: as §2

[5] = test system: small flower umbrella sedge; experiment: Test B flooded paddy test; assay type: in vivo, Cyperus difformis; settings: 1000 g ai/ha, visual rating, scale 0 to 100 (0 no effect, 100 complete control), 13 to 15 days
Outline: as §3

large crabgrass = experiment: Test B pre-/postemergence herbicide test; assay type: in vivo, Digitaria sanguinalis
Outline: as §2

[6] = Postemergence, 500 g ai/ha, visual rating after 13 to 15 days, scale 0 (no effect) to 100 (complete control)
[7] = 125 g ai/ha, visual rating, scale 0 (no effect) to 100 (complete control)
[8] = preemergence, 125 g ai/ha, 0 to 100 scale, 0 is no effect, 100 is complete control
[9] = Preemergence, 500 g ai/ha, scale 0 to 100
[10] = postemergence, 125 g ai/ha, visual rating, scale 0 (no effect) to 100 (complete control)
[11] = Postemergence, 500 g ai/ha, visual rating after 13 to 15 days
[12] = 125 g ai/ha, 0 = no effect, 100 = complete control, preemergence
[13] = 500 g ai/ha, visual rating, 0 = no effect, 100 = complete control, preemergence
[14] = 500 g ai/ha, visual rating, scale 0 (no effect) to 100 (complete control)
[15] = postemergence, 500 g ai/ha, visual rating, scale 0 (no effect) to 100 (complete control)

## CCNC(=O)c1cc(NC(=O)c2cc(C(C)(C)C)nn2CC)ccc1C [Compound 68]
morningglory; [6]
  Plant response rating, Morningglory: 0
morningglory; [7]
  Morningglory plant response rating: 0
morningglory; [8]
  Plant response rating, Morningglory: 20
lambsquarters; [6]
  Plant response rating, Lambsquarters: 10
lambsquarters; [7]
  Lambsquarters plant response rating: 0
lambsquarters; [8]
  Plant response rating, Lambsquarters: 20
Giant foxtail; [6]
  Plant response rating, Foxtail, Giant: 0
Giant foxtail; [9]
  Foxtail, Giant plant response rating: 0
Giant foxtail; [10]
  Foxtail, Giant plant response rating: 0
Giant foxtail; [8]
  Plant response rating, Foxtail, Giant: 0
Barnyardgrass [1]; [6]
  Plant response rating, Barnyardgrass: 0
Barnyardgrass [1]; [9]
  Barnyardgrass plant response rating: 10
Barnyardgrass [1]; [10]
  Barnyardgrass plant response rating: 0
Barnyardgrass [1]; [8]
  Plant response rating, Barnyardgrass: 0
blackgrass; [11]
  Plant response rating, Blackgrass: 20
blackgrass; 125 g ai/ha
  Blackgrass plant response rating: 10
cocklebur; [6]
  Plant response rating, Cocklebur: 10
cocklebur; [9]
  Cocklebur plant response rating: 0
cocklebur; [10]
  Cocklebur plant response rating: 10
cocklebur; [8]
  Plant response rating, Cocklebur: 0
Surinam grass; [6]
  Plant response rating, Surinam Grass: 0
Surinam grass; [7]
  Surinam Grass plant response rating: 0
Surinam grass; [8]
  Plant response rating, Surinam Grass: 0
Rice [2]; 125 g ai/ha, 0 to 100 scale, 0 is no effect, 100 is complete control
  Plant response rating, Rice: 0
ducksalad
  Ducksalad plant response rating: 0
Wild oat; [11]
  Plant response rating, Oat, Wild: 20
Wild oat; 125 g ai/ha
  Oat, Wild plant response rating: 10
wheat; [11]
  Plant response rating, Wheat: 0
wheat; 125 g ai/ha
  Wheat plant response rating: 0
velvetleaf; [6]
  Plant response rating, Velvetleaf: 0
velvetleaf; [7]
  Velvetleaf plant response rating: 0
velvetleaf; [8]
  Plant response rating, Velvetleaf: 0
Rice [3]
  Rice plant response rating: 0
Barnyardgrass [4]
  Barnyardgrass plant response rating: 0
pigweed; [6]
  Plant response rating, Pigweed: 30
pigweed; [7]
  Pigweed plant response rating: 10
pigweed; [8]
  Plant response rating, Pigweed: 70
corn; [6]
  Plant response rating, Corn: 0
corn; [9]
  Corn plant response rating: 0
corn; [10]
  Corn plant response rating: 0
corn; [8]
  Plant response rating, Corn: 0
[5]
  Sedge, Umbrella plant response rating: 0
Large crabgrass; [6]
  Plant response rating, Crabgrass, Large: 0
Large crabgrass; [9]
  Crabgrass, Large plant response rating: 0
Large crabgrass; [10]
  Crabgrass, Large plant response rating: 0
Large crabgrass; [8]
  Plant response rating, Crabgrass, Large: 0

## CCc1nc(C(C)(C)C)sc1C(=O)Nc1cc(C(=O)N(CC)CC)ccc1F [Compound 230]
morningglory; [12]
  Morningglory plant response rating (0 to 100 scale): 10
morningglory; [13]
  Plant response rating, Morningglory: 10
morningglory; [7]
  Morningglory plant response rating: 20
morningglory; [14]
  Morningglory plant response rating: 70
lambsquarters; [12]
  Lambsquarters plant response rating (0 to 100 scale): 20
lambsquarters; [13]
  Plant response rating, Lambsquarters: 90
lambsquarters; [7]
  Lambsquarters plant response rating: 50
lambsquarters; [14]
  Lambsquarters plant response rating: 60
Giant foxtail; [12]
  Foxtail, Giant plant response rating (0 to 100 scale): 10
Giant foxtail; [13]
  Plant response rating, Foxtail, Giant: 80
Giant foxtail; [10]
  Foxtail, Giant plant response rating: 10
Giant foxtail; [15]
  Foxtail, Giant plant response rating: 20
Barnyardgrass [1]; [12]
  Barnyardgrass plant response rating (0 to 100 scale): 10
Barnyardgrass [1]; [13]
  Plant response rating, Barnyardgrass: 50
Barnyardgrass [1]; [10]
  Barnyardgrass plant response rating: 0
Barnyardgrass [1]; [15]
  Barnyardgrass plant response rating: 20
blackgrass; 125 g ai/ha
  Blackgrass plant response rating: 30
blackgrass; 500 g ai/ha
  Blackgrass plant response rating: 30
cocklebur; [12]
  Cocklebur plant response rating (0 to 100 scale): 0
cocklebur; [13]
  Plant response rating, Cocklebur: 0
cocklebur; [10]
  Cocklebur plant response rating: 0
cocklebur; [15]
  Cocklebur plant response rating: 10
Surinam grass; [12]
  Surinam Grass plant response rating (0 to 100 scale): 0
Surinam grass; [13]
  Plant response rating, Surinam Grass: 10
Surinam grass; [7]
  Surinam Grass plant response rating: 10
Surinam grass; [14]
  Surinam Grass plant response rating: 10
Rice [2]; 125 g ai/ha, 0 = no effect, 100 = complete control
  Rice plant response rating (0 to 100 scale): 0
Rice [2]; 500 g ai/ha, visual rating, 0 = no effect, 100 = complete control
  Plant response rating, Rice: 0
ducksalad
  Ducksalad plant response rating: 60
Wild oat; 125 g ai/ha
  Oat, Wild plant response rating: 20
Wild oat; 500 g ai/ha
  Oat, Wild plant response rating: 40
wheat; 125 g ai/ha
  Wheat plant response rating: 10
wheat; 500 g ai/ha
  Wheat plant response rating: 20
velvetleaf; [12]
  Velvetleaf plant response rating (0 to 100 scale): 10
velvetleaf; [13]
  Plant response rating, Velvetleaf: 30
velvetleaf; [7]
  Velvetleaf plant response rating: 20
velvetleaf; [14]
  Velvetleaf plant response rating: 30
Rice [3]
  Rice plant response rating: 60
Barnyardgrass [4]
  Barnyardgrass plant response rating: 50
pigweed; [12]
  Pigweed plant response rating (0 to 100 scale): 40
pigweed; [13]
  Plant response rating, Pigweed: 80
pigweed; [7]
  Pigweed plant response rating: 40
pigweed; [14]
  Pigweed plant response rating: 60
corn; [12]
  Corn plant response rating (0 to 100 scale): 0
corn; [13]
  Plant response rating, Corn: 10
corn; [10]
  Corn plant response rating: 10
corn; [15]
  Corn plant response rating: 20
Large crabgrass; [12]
  Crabgrass, Large plant response rating (0 to 100 scale): 20
Large crabgrass; [13]
  Plant response rating, Crabgrass, Large: 70
Large crabgrass; [10]
  Crabgrass, Large plant response rating: 10
Large crabgrass; [15]
  Crabgrass, Large plant response rating: 20
